According to PubChem BioAssay (NCI):
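A five-concentration, 48-hour dose response in 96-well plates underlies each endpoint, interpolated linearly between surrounding concentrations. TGI: concentration producing complete growth inhibition.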

Key:
Experiment in all cases: NCI-60 cell line screen, 48 h
KM20L2 colon = system: KM20L2 colon
LOX IMVI melanoma = system: LOX IMVI melanoma
UACC-257 melanoma = system: UACC-257 melanoma
K-562 leukemia = system: K-562 leukemia
RPMI-8226 leukemia = system: RPMI-8226 leukemia
HCT-15 colon = system: HCT-15 colon
COLO 205 colon = system: COLO 205 colon
HT29 colon = system: HT29 colon
OVCAR-4 ovarian = system: OVCAR-4 ovarian
SK-MEL-5 melanoma = system: SK-MEL-5 melanoma
SNB-78 CNS = system: SNB-78 CNS
SK-MEL-28 melanoma = system: SK-MEL-28 melanoma
HOP-62 NSCLC = system: HOP-62 NSCLC
OVCAR-8 ovarian = system: OVCAR-8 ovarian
OVCAR-3 ovarian = system: OVCAR-3 ovarian
CAKI-1 renal = system: CAKI-1 renal
IGROV1 ovarian = system: IGROV1 ovarian
HOP-18 NSCLC = system: HOP-18 NSCLC
OVCAR-5 ovarian = system: OVCAR-5 ovarian
MOLT-4 leukemia = system: MOLT-4 leukemia
XF 498 CNS = system: XF 498 CNS
NCI-H23 lung = system: NCI-H23 lung
U251 CNS = system: U251 CNS
UACC-62 melanoma = system: UACC-62 melanoma
A549 NSCLC = system: A549 NSCLC
UO-31 renal = system: UO-31 renal
SNB-75 CNS = system: SNB-75 CNS
DLD-1 colon = system: DLD-1 colon
SF-295 CNS = system: SF-295 CNS
RXF 393 renal = system: RXF 393 renal
SNB-19 CNS = system: SNB-19 CNS
M19-MEL melanoma = system: M19-MEL melanoma
LXFL 529 NSCLC = system: LXFL 529 NSCLC
786-0 renal = system: 786-0 renal
HL-60(TB) leukemia = system: HL-60(TB) leukemia
MALME-3M melanoma = system: MALME-3M melanoma
NCI-H226 lung = system: NCI-H226 lung
DMS 114 small cell lung = system: DMS 114 small cell lung
HCT-116 colon = system: HCT-116 colon
EKVX NSCLC = system: EKVX NSCLC
M14 melanoma = system: M14 melanoma
ACHN renal = system: ACHN renal
SK-OV-3 ovarian = system: SK-OV-3 ovarian
KM12 colon = system: KM12 colon
SK-MEL-2 melanoma = system: SK-MEL-2 melanoma
SF-539 CNS = system: SF-539 CNS
TK-10 renal = system: TK-10 renal
SW-620 colon = system: SW-620 colon
SN12C renal = system: SN12C renal
NCI-H460 lung = system: NCI-H460 lung
NCI-H522 lung = system: NCI-H522 lung
SR leukemia = system: SR leukemia
A498 renal = system: A498 renal
RXF-631 renal = system: RXF-631 renal
HOP-92 NSCLC = system: HOP-92 NSCLC
DMS 273 small cell lung = system: DMS 273 small cell lung
CCRF-CEM leukemia = system: CCRF-CEM leukemia
HCC-2998 colon = system: HCC-2998 colon
SF-268 CNS = system: SF-268 CNS

NCCCCCCNCc1cccc2ccccc12
TGI (KM20L2 colon): > 100 µM
TGI (LOX IMVI melanoma): > 100 µM
TGI (UACC-257 melanoma): > 100 µM
TGI (K-562 leukemia): 51.1 µM
TGI (RPMI-8226 leukemia): > 100 µM
TGI (HCT-15 colon): > 100 µM
TGI (COLO 205 colon): > 100 µM
TGI (HT29 colon): > 100 µM
TGI (OVCAR-4 ovarian): > 100 µM
TGI (SK-MEL-5 melanoma): > 100 µM
TGI (SNB-78 CNS): > 100 µM
TGI (SK-MEL-28 melanoma): > 100 µM
TGI (HOP-62 NSCLC): > 100 µM
TGI (OVCAR-8 ovarian): > 100 µM
TGI (OVCAR-3 ovarian): > 100 µM
TGI (CAKI-1 renal): > 100 µM
TGI (IGROV1 ovarian): > 100 µM
TGI (HOP-18 NSCLC): > 100 µM
TGI (OVCAR-5 ovarian): > 100 µM
TGI (MOLT-4 leukemia): > 100 µM
TGI (XF 498 CNS): > 100 µM
TGI (NCI-H23 lung): > 100 µM
TGI (U251 CNS): > 100 µM
TGI (UACC-62 melanoma): > 100 µM
TGI (A549 NSCLC): > 100 µM
TGI (UO-31 renal): > 100 µM
TGI (SNB-75 CNS): > 100 µM
TGI (DLD-1 colon): > 100 µM
TGI (SF-295 CNS): > 100 µM
TGI (RXF 393 renal): > 100 µM
TGI (SNB-19 CNS): > 100 µM
TGI (M19-MEL melanoma): > 100 µM
TGI (LXFL 529 NSCLC): > 100 µM
TGI (786-0 renal): > 100 µM
TGI (HL-60(TB) leukemia): > 100 µM
TGI (MALME-3M melanoma): 35.6 µM
TGI (NCI-H226 lung): > 100 µM
TGI (DMS 114 small cell lung): > 100 µM
TGI (HCT-116 colon): > 100 µM
TGI (EKVX NSCLC): > 100 µM
TGI (M14 melanoma): 34.3 µM
TGI (ACHN renal): > 100 µM
TGI (SK-OV-3 ovarian): > 100 µM
TGI (KM12 colon): > 100 µM
TGI (SK-MEL-2 melanoma): > 100 µM
TGI (SF-539 CNS): > 100 µM
TGI (TK-10 renal): > 100 µM
TGI (SW-620 colon): > 100 µM
TGI (SN12C renal): > 100 µM
TGI (NCI-H460 lung): > 100 µM
TGI (NCI-H522 lung): > 100 µM
TGI (SR leukemia): > 100 µM

N#Cc1ccc2cc3c(cc2c1)OCO3
TGI (KM20L2 colon): > 100 µM
TGI (LOX IMVI melanoma): > 100 µM
TGI (A498 renal): > 100 µM
TGI (K-562 leukemia): > 100 µM
TGI (RPMI-8226 leukemia): > 100 µM
TGI (HCT-15 colon): > 100 µM
TGI (COLO 205 colon): > 100 µM
TGI (HT29 colon): > 100 µM
TGI (OVCAR-4 ovarian): > 100 µM
TGI (SNB-78 CNS): > 100 µM
TGI (SK-MEL-28 melanoma): > 100 µM
TGI (HOP-62 NSCLC): > 100 µM
TGI (OVCAR-3 ovarian): > 100 µM
TGI (IGROV1 ovarian): > 100 µM
TGI (RXF-631 renal): > 100 µM
TGI (OVCAR-5 ovarian): > 100 µM
TGI (HOP-92 NSCLC): > 100 µM
TGI (MOLT-4 leukemia): > 100 µM
TGI (NCI-H23 lung): > 100 µM
TGI (U251 CNS): > 100 µM
TGI (UACC-62 melanoma): > 100 µM
TGI (UO-31 renal): 89.3 µM
TGI (SNB-75 CNS): 74.3 µM
TGI (DMS 273 small cell lung): > 100 µM
TGI (DLD-1 colon): > 100 µM
TGI (SF-295 CNS): > 100 µM
TGI (RXF 393 renal): > 100 µM
TGI (SNB-19 CNS): > 100 µM
TGI (M19-MEL melanoma): > 100 µM
TGI (LXFL 529 NSCLC): > 100 µM
TGI (786-0 renal): > 100 µM
TGI (CCRF-CEM leukemia): > 100 µM
TGI (HL-60(TB) leukemia): > 100 µM
TGI (NCI-H226 lung): > 100 µM
TGI (DMS 114 small cell lung): > 100 µM
TGI (HCT-116 colon): > 100 µM
TGI (HCC-2998 colon): > 100 µM
TGI (M14 melanoma): > 100 µM
TGI (ACHN renal): > 100 µM
TGI (SK-OV-3 ovarian): > 100 µM
TGI (SF-268 CNS): > 100 µM
TGI (KM12 colon): > 100 µM
TGI (SK-MEL-2 melanoma): > 100 µM
TGI (SF-539 CNS): > 100 µM
TGI (SN12C renal): > 100 µM
TGI (NCI-H460 lung): > 100 µM
TGI (NCI-H522 lung): > 100 µM
